Results: patent publication US8048455B2, “Treatment of cancer and inflammatory disorder” (Academia Sinica, priority 2006, dated 2011)

How the values were obtained:
[1] = test system: NF-κB•DNA complex; experiment: Electrophoretic mobility shift assay of NF-κB binding to consensus DNA in LPS-stimulated RAW 264.7 cells; format: cell-based, murine; conditions: 100 μM, LPS 1 μg/mL, 90 min
Experimental: EMSA was performed with the […]™ Chemiluminescent EMSA kit (Pierce Biotechnology, Rockford, Ill.). […] The DNA-protein complexes were subjected to 5-10% gradient PAGE. Competition assay with unlabeled oligonucleotide (cold DNA) was performed in parallel. […]

[2] = test system: NO; experiment: Plasma nitrite concentration in SNP-treated mice; format: in vivo, Female ICR mice; conditions: topical pretreatment 30 min before SNP; dLGG 10 mg/site, PTIO 3.5 mg/site
Experimental: Female ICR mice were topically treated on their shaven back area of a 2-cm diameter (3.14 cm^2/site/mouse) with vehicle control (acetone), SNP (positive control), or with dLGG or PTIO for 30 minutes before SNP application. Mouse plasma samples were subjected to determine the nitrite content followed a published method (Moshage et al. Clin Chem 1995; 41:892-6).
To examine the capability of dLGG to scavenge NO in vivo, the plasma NO concentration in SNP-insulted mice was determined with or without pretreatment with dLGG. Female ICR mice were transdermally treated with 200 μL acetone (vehicle control) or SNP (5.96 mg/site) only for 15 minutes, or pre-treated with dLGG (10 mg/site) or PTIO (3.5 mg/site) for 30 minutes before SNP treatment.

[3] = test system: human COX-2 promoter; experiment: COX-2 promoter-driven luciferase reporter assay in TPA-treated B16 melanoma cells; format: cell-based, murine; conditions: reference control
Excerpt: A double-mutated COX-2 promoter containing mutations on both NF-κB sites was also constructed (FIG. 2). PPGL-3-Basic vector was used as a negative control in luciferase assays. COX-2 reporter activity in arbitrary units (AU) was normalized to that for the Renilla luciferase reporter.
Murine melanoma B-16 cells co-transfected with the full-length pCOX-2-Luc and internal control plasmid pRL-TK-Luc plasmid constructs were stimulated without (control) or with TPA, in the absence or presence of the indicated concentrations of CREa8. An amount of 10 μg of total protein lysate was subjected to dual luciferase reporter assay. The induction fold of COX promoter activity by TPA treatment only is presented as 100%. The statistical analyses between […] and CREa8, aspirin, or indomethacin (Indo.) treatment were performed using Student's t-test.
B-16 cells were co-transfected with the full-length pCOX-2-Luc and internal control Renilla pRL-TK-Luc plasmid constructs with the LIPOFECTAMINE reagent (Invitrogen). The cells were then stimulated with vehicle (0.001% DMSO) or with 50 ng/mL TPA, in the absence or presence of dLGG for 6 hours. Ten μg of total protein lysate prepared with Passive Lysis Buffer (Promega) was subjected to dual luciferase reporter assay. The induction fold of COX-2 promoter activity by TPA treatment only is presented as 100%.
The contribution of specific cis-acting element binding sites on the transcription of COX-2 was examined. Data were obtained from 2 to 3 experiments with 3 to 6 replicates and expressed as mean±SD. Two-way ANOVA was used to analyze significance of differences.

[4] = test system: B16 melanoma; experiment: In vivo inhibition of B16 melanoma growth in C57BL/6J mice
Experimental: The chemopreventive effect of the CREa8 subfraction was evaluated on tumor growth using the B16 melanoma C57BL/6J mouse system. Six-week-old animals (4 groups of mice, 5 in each group) were used in this experiment. Group 1 mice (Sham control) were intraperitoneally (i.p.) injected with 20 μL of DMSO every 2 days throughout the experimental period, except 100 μL PBS was injected on day 0. Group 4 mice (Tumor control) were pre-treated with DMSO every 2 days, starting from day—14, for 2 weeks, inoculated with B16 tumor cells (1×10^6 cells/100 μL PBS) subcutaneously (s.c.) on the abdominal area on day 0, and then injected with DMSO every 2 days until day 21. Group 2 mice were i.p. pre-treated with CREa8 (10 mg/kg body weight per dose) every 2 days, starting from day—14, for 2 weeks, s.c. inoculated with B16 tumor cells on day 0, and then continuously treated with CREa8 (i.p.) every 2 days until day 21. Group 3 mice were similarly pre-treated with DMSO every 2 days for 2 weeks, inoculated with B16 tumor cells on day 0, and then treated with cisplatin (i.p.) every 2 days until day 21. The test mice were monitored daily, and body weights and tumor size (average of 2 dimensions) recorded every 2 days. At the end of the experiment (day 21), tumors were excised and weighed.
The cancer prevention efficacy of the dLGG-rich fraction (CREa8) was examined in vivo in 4 groups of mice according to the method described above. Cisplatin, a cancer chemotherapeutic, was used as a reference control.

`CC/C=C\C/C=C\C/C=C\CCCCCCCC(=O)OC[C@@H](O)CO[C@@H]1O[C@H](CO)[C@H](O)[C@H](O)[C@H]1O` [1LGG, 1-O-α-linolenoyl-3-O-β-galactopyranosyl-sn-glycerol] was tested, and the “Inhibition of NF-κB•DNA complex formation (structure-activity study)” value (from here on “Inhibition”) [1] was “less effective than dLGG and dLG”.

`CC/C=C\C/C=C\C/C=C\CCCCCCCC(=O)O[C@H](CO)CO[C@@H]1O[C@H](CO)[C@H](O)[C@H](O)[C@H]1O` [2LGG, 2-O-α-linolenoyl-3-O-β-galactopyranosyl-sn-glycerol] was tested, and the “Inhibition” value [1] was “less effective than dLGG and dLG”.

With `CC1(C)N([O])C(c2ccccc2)=[N+]([O-])C1(C)C` [PTIO, 2-phenyl-4,4,5,5-tetramethylimidazoline-1-oxyl-3-oxide, reference compound] the “SNP-induced increase of nitrite plasma concentration” value [2] was “suppressed”.

For `CCCCCCCCCCCCCCCCCC(=O)O` [SA, stearic acid, reference compound], the “Inhibition” value [1] was “little or no detectable effect”.

With `CC(=O)Oc1ccccc1C(=O)O` [aspirin, reference compound] the “Suppression of COX-2 promoter activity” value ([3]; 45 μg/mL) was 19%.

In the case of `N.N.[Cl][Pt][Cl]` [cisplatin], the Average tumor size ([4]; day 7, i.p. every 2 days, tumor control 0.73 cm) is reported as 0.29 cm, the “Average tumor size, of the tumor control” value ([4]; day 17) is reported as 73% and the “Tumor weight to body weight ratio” value ([4]; day 21, tumor control 31.3%) is reported as 25.2%. The “Body weights versus other groups” value ([4]; throughout treatment) was “no significant differences”.

For `CC/C=C\C/C=C\C/C=C\CCCCCCCC(=O)OC[C@H](CO)OC(=O)CCCCCCC/C=C\C/C=C\C/C=C\CC` [dLG, 1,2-di-O-α-linolenoyl-sn-glycerol], the “Inhibition” value [1] was “almost completely inhibited”.

`COc1ccc2c(c1)c(CC(=O)O)c(C)n2C(=O)c1ccc(Cl)cc1` [indomethacin, reference compound] was tested, and the “Suppression of COX-2 promoter activity” value ([3]; 15 μg/mL) was 28%.
